Laboratory results reported in patent US20050124618A1, “Methods of modulating angiogenesis and cancer cell proliferation” (priority 2003, published 2005).
Entries after “also recorded” stand apart in the source; their conditions may differ.

Columns and labels:
[1] = tested on: 20-HETE; details: cited from earlier work
[2] = tested on: HUVECs; assay: Proliferation of normal HUVECs (comparison with U251); format: cell-based, human; details: 10 μM HET0016, 48 hrs; DDMS concentration not given
Description: (§1) Mean values±SD from three separate experiments, each performed in triplicate, are presented. *** indicates p<0.001 from the respective control values.
(§2) Cell Proliferation Assays: Proliferation studies were performed with cultures plated at a density that ensured exponential growth for at least 5 days. Growth medium was generally replaced by serum-free medium 24 hr after plating. Cells were treated with various concentrations of a given compounds for 24 or 48 hr as described in the Methods. […] Organic solvent never exceeded 0.1% of total culture volume. Cells were harvested by exposure to 0.05% trypsin/EDTA and counted using a hemocytometer.

[3] = tested on: U251 human glioma cells; assay: DNA fragmentation and TUNEL assays in U251 cells; format: cell-based; details: HET0016
Description: DNA Fragmentation and TUNEL Assays: HET0016-treated cultures were washed twice with 1×PBS and incubated with lysis buffer [20 mM Tris-HCl, 10 mM EDTA, 0.3% Triton X-100]. Genomic DNA was extracted and separated on a 2% agarose gel. Separated DNA was visualized by staining gels with ethidium bromide (EtBr). […] Coverslips were washed 3× with PBS and air-dried. Samples were then fixed with a freshly prepared fixation solution (4% paraformaldehyde in PBS, pH 7.4) for 1 hr at room temperature, followed by incubation in fresh permeabilization solution (0.1% Triton X-100 in 0.1% sodium citrate) for 2 min on ice. Finally, samples were processed using in situ Cell Death Detection Kit, AP (Roche Diagnostics, Indianapolis, Ind.) according to the manufacturer's recommendations.

[4] = tested on: 9L rat gliosarcoma cells; assay: [3H]thymidine incorporation in 9L cells; format: cell-based; details: 10 μM HET0016
Description: [^3H]Thymidine Incorporation Studies: Thymidine incorporation studies were performed with cells grown in 35-mm culture dishes. […] Palmitic acid and EtOH served as nonspecific fatty acid and vehicle controls, respectively. At the end of the pulse, the medium was aspirated and the cells rinsed twice with cold 1× phosphate buffered saline (PBS). The rinsed cultures were fixed by exposure to cold 5% trichloracetic acid overnight at 4° C., after which fixed cells were extracted as described previously (Scholler et al., Mol. Pharmacol. 45: 944-954, 1994). A second set of non-fixed dishes was treated with 0.05% trypsin/EDTA to estimate cell numbers. [^3H]thymidine was detected by scintillation counting and expressed as dpm/10^3 cells.

[5] = tested on: p42/p44 MAPK; assay: Western blot of phospho-p42/p44 MAPK in U251 cells; format: cell-based, human; details: 10 μM HET0016, 24 and 48 hr
Description: They were then pelleted by centrifugation at 1,000 g for 5 min at 4° C. Cells were lysed by adding RIPA buffer [20 mM HEPES (pH 7.4), 100 mM NaCl, 1% Nonidet P-40, 0.1% SDS, 1% deoxycholic acid, 10% glycerol, 1 mM EDTA, 1 mM NaVO3, 50 mM NaF, and Protease Inhibitors Set 1 (Calbiochem, La Jolla, Calif.)]. Plates were then scraped and cells collected in a 1.5-ml centrifuge tube, followed by incubation on ice for 30 min. Homogenates of the cell suspension were centrifuged for 10 min at 14,000 g and 4° C.; the pellets were discarded and protein concentrations in the supernatant determined by bicinchoninic acid (BCA) protein assay.
Typically, 20 μg of protein was separated on a 14% Tris-glycine gel (Invitrogen) and electroblotted on a PVDF membrane (Biotrace, Bothell, Wash.). Membranes were blocked for 1 h at room temperature with blocking buffer [0.2% I-Block reagent (Tropix, Bedford, Mass.), 0.1% Tween-20 in […]] before incubation with primary antibodies in blocking buffer (overnight at 4° C.). […] Both phospho-tyrosine (Y102) and phospho-serine/threonine-Pro MPM2 were detected using a 1:2000 dilution of the corresponding antibodies, whereas phospho-p44/p42MAPK and phospho-SAPK/JNK were detected using 1:1000 antibody dilutions. […]

[6] = tested on: CYP4A11 mRNA; assay: RT-PCR of CYP4A11 mRNA in U251 cultures; format: cell-based, human; details: 10 μM HET0016 for 24 hr
Description: EtOH-treated cultures were used as solvent controls. Briefly, total RNA was isolated with Trizol reagent (Invitrogen) and 1-2 μg RNA was used to synthesize cDNA using a First Strand synthesis kit (Invitrogen). We used PCR primers that specifically recognize CYP4A11, and β-actin-specific primers. A 1 μCi ^32P per sample was added to Platinum PCR Supermix (Invitrogen). The PCR conditions used to amplify CYP4A 11 and β-actin consisted of a precycle of 95° C for 3 min followed by 35 cycles of 95° C for 45 s, 52° C. for 30 s, and 72° C. for 2 min, with final extension at 72° C. for 10 min. The primers used were: β-actin forward primer, 5′-TGCGTGACATTAAGGAGAAG-3′ (SEQ ID NO:3); β-actin reverse primer, 5′-GCT CGT AGC TCT TCT CCA-3′ (SEQ ID NO:4); CYP4A11 forward primer, 5′-CCACCTGGACCAGAGGCCCTACACCACC-3′ (SEQ ID NO:5); CYP4A11 reverse primer, 5′-AGGATATGGGCAGACAGGAA-3′(SEQ ID NO:6). PCR products were subjected to electrophoresis in 5% bis-acrylamide gels and visualized by autoradiography.

[7] = tested on: primary human keratinocytes; assay: Proliferation of primary human keratinocytes (comparison with U251); format: cell-based; details: 10 μM HET0016, 48 hrs; DDMS concentration not given
Description: as §1, §2

CCCCc1ccc(N=CNO)c(C)c1 [HET0016, N-hydroxy-N′-(4-butyl-2 methylphenyl) formamidine]
ability to reduce 20-HETE levels in vivo [1]: reduce 20-HETE levels in vivo
effect on basal growth or proliferation of normal HUVECs [2]: Neither DDMS or HET0016 had any effect; also recorded: had no effect on the basal growth or proliferation; also recorded: had no effect on the proliferation
induction of apoptosis (DNA fragmentation and TUNEL) [3]: does not induce apoptosis
reduction of thymidine incorporation in 9L cultures [4]: 60%
phosphorylation of p42/p44 MAPK [5]: specifically inhibited phosphorylation
CYP4A11 transcript levels [6]: decreased
effect on basal growth or proliferation of primary human keratinocytes [7]: Neither DDMS or HET0016 had any effect; also recorded: had no effect on the basal growth or proliferation; also recorded: had no effect on the proliferation
